Molar volume data for one compound are collected here from the NIST ThermoML archive (doi:10.1021/je5000605).

For this series the following is noted: 293.15 K; 101.33 kPa; Crystal; Pycnometric method.

SMILES strings stand for the structures. Numbers after ± are expanded uncertainties.

Consider `C=CC1=C(C(=O)O)N2C(=O)[C@@H](NC(=O)/C(=N\OCC(=O)O)c3csc(N)n3)[C@H]2SC1.O.O.O` [cefixime trihydrate], for which the molar volume came out at 0.0004982 ± 1e-05 m3/mol.
